The target in experiment [1] is T1, Mg1LysM (Zymoseptoria tritici, UniProt F9XHX3).
T1 construct: E. coli-produced; single LysM; borders and tag not described; ligand-independent homodimer
In words: ligand-induced polymerization, centrifugation pellet with methylene blue. Format: binding. The note with it: 200 µM protein stock mixed 1:1 with 2 mM chitohexaose; room temperature overnight; positive control.

The target in experiment [2] is T2, Mgx1LysM (Zymoseptoria tritici, UniProt P9WEM2).
T2 construct: mature protein, signal peptide removed; E. coli Origami, pETSUMO; 6xHis-SUMO tag cleaved with ULP1; single LysM
The experiment is described as above. Type of experiment: binding. The following applies: 200 µM protein stock mixed 1:1 with 2 mM chitohexaose; room temperature overnight.

Molecules are shown by their SMILES.

T2 sequence (P9WEM2 19-103): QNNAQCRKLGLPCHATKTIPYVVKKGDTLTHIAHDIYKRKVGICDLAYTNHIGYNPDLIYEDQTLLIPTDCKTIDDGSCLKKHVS
T1 sequence (F9XHX3 19-97): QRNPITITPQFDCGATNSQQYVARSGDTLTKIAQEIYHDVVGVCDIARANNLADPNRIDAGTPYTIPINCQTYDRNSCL

Take `CC(=O)N[C@H]1[C@H](O[C@H]2[C@H](O)[C@@H](NC(C)=O)[C@H](O[C@H]3[C@H](O)[C@@H](NC(C)=O)C(O)O[C@@H]3CO)O[C@@H]2CO)O[C@H](CO)[C@@H](O[C@@H]2O[C@H](CO)[C@@H](O[C@@H]3O[C@H](CO)[C@@H](O[C@@H]4O[C@H](CO)[C@@H](O)[C@H](O)[C@H]4NC(C)=O)[C@H](O)[C@H]3NC(C)=O)[C@H](O)[C@H]2NC(C)=O)[C@@H]1O` (some centres unmarked) [chitohexaose]: the “ligand-induced polymerization, centrifugation pellet with methylene blue” value in experiment [1] is “protein pellets (red arrowheads) as a consequence of polymerization for Mgx1LysM, Mg1LysM, and RiSLM”; in experiment [2] it was “a clear Mgx1LysM pellet emerged upon incubation with chitin, and not in the absence”.

The values above are taken from article PMC8126183, “Three LysM effectors of Zymoseptoria tritici collectively disarm chitin‐triggered plant immunity” (Molecular Plant Pathology, 2021).
